The values that follow come from USRE46698E1, “Use of cyclohexanol derivatives as antimicrobial active compounds” (MERCK PATENT GMBH, priority 2011, dated 2018).

A short description of experiment [1]: Rancimate assay, antioxidative capacity (Example 1). The conditions noted are these: 0.1% w/w in soya oil; 120° C.; input of air 201/h. The procedure:
The antioxidative capacity of substances I-9, I-10 and I-2 is determined in the so-called Rancimate assay. The comparative substances used are 4-t-butyl-1-cyclohexanol and tocopherol. The positive standard employed is BHT. The measurement parameter is the time duration (induction time) of the increase in the conductivity of unstabilised soya oil on exposure to air at elevated temperature. The longer the induction time, the greater the stabilising or antioxidant action. The following boundary conditions were maintained: input of air 201/h; temperature 120° C. and sample concentrations of 0.1% w/w each in soya oil. For each test substance, a relative antioxidation-protection factor is determined, which corresponds to the ratio of the induction times with and without test substance: […]

For the next experiment, the system named is Echerichia coli. Kind of experiment: Antimicrobial action, microbe count (Example 6). It is filed as cell-based. The conditions noted are these: H2O (12% of ethanol), count t0 6.3 × 10^4; for Δlog: t24 h. The protocol:
(§1) For sample preparation, the substances being investigated are each dissolved or homogeneously dispersed in an amount of 1.0% in a water/ethanol mixture (12% of ethanol) and subsequently diluted with bacteria suspension in the ratio 1 to 2. P. acnes (ATCC 6919) is pre-incubated under anaerobic conditions for 48 h at 35° C. on RMC agar (Merck 1.05410). A bacteria suspension having an optical density (OD) of about 1.5 is subsequently prepared in RMC broth (Merck 1.05411, double-concentrated). 150 μl of freshly prepared sample and 100 μl of paraffin are added to 150 μl of bacteria suspension per well. The optical density is determined over the course of time at 37° C. using a Bioscreen C™ analyser compared with the negative control (=vehicle without test substance). Compared with the negative control, reduced optical densities confirm growth-inhibiting substance actions.
(§2) For sample preparation, the substances being investigated are each dissolved or homogeneously dispersed in an amount of 1.0% in a water/ethanol mixture (12% of ethanol) (=sample). A bacteria suspension of S. epidermidis (ATCC 12228) having an optical density of 1.0 in CASO broth (Merck 1.05459) is diluted 1:10000 with CASO broth. 500 μl of sample are added to 500 μl of bacteria suspension, and the mixture is incubated at 35° C. for 24 h. After the incubation, the test batches are diluted to −6 in 10 unit steps, and 0.1 ml of each is plated-out on CASO agar (Merck 1.05458) and incubated at 35° C. for 24 h.
(§3) In order to determine the initial microbe count, 0.1 ml of the bacteria suspension used are plated-out on CASO agar (Merck 1.05458) and incubated at 35° C. for 24 h.
(§4) The colonies are subsequently counted, and the microbe count per ml is determined compared with the negative control (12% of ethanol in water).
(§5) The procedure corresponds to that described in Examples 4 and 5 using the microorganisms shown below. The concentrations indicated are the final use concentrations. In order to prepare the stock solution, double the final concentration were prepared in the solvent indicated. This was subsequently diluted 1:2 with the corresponding microbe suspension. In the case of Aspergillus brasiliensis, the microbe count determination was exceptionally carried out after 48 h.

In another experiment the test system is P. acnes (ATCC 6919). Description: Growth inhibition by optical density, Bioscreen C (Example 4). It is filed as cell-based, Propionibacterium acnes. The conditions noted are these: 1.0% sample in water/ethanol (12% of ethanol) diluted 1 to 2 with bacteria suspension; 37° C.; negative control 1.0. The procedure: as §1
(§6) Result as optical density of the bacteria suspension after an exposure time of 20 hours: […]

Experiment [2] concerns S. epidermidis (ATCC 12228). Kind of experiment: Microbe count determination, bacteriostatic or bactericidal action (Example 5). It is filed as cell-based, Staphylococcus epidermidis. The conditions noted are these: 24 h at 35° C.; for Final microbe count: 1.0% sample in 12% ethanol, 500 μl + 500 μl bacteria suspension, initial count 3.8 × 10^4, negative control 5.0 × 10^7; for Note: bacteriostatic or bactericidal action: S. epidermidis. The procedure: as §2, §3, §4

Experiment [3] relates to S. epidermidis (ATCC 12228). Kind of experiment: Growth inhibition by optical density, Bioscreen C (Example 3). It is filed as cell-based, Staphylococcus epidermidis. The conditions noted are these: 1.0% sample in water/ethanol (12% of ethanol) diluted 1 to 2 with bacteria suspension, 37° C. The procedure:
For sample preparation, the substances being investigated are each dissolved or homogeneously dispersed in an amount of 1.0% in a water/ethanol mixture (12% of ethanol) and subsequently diluted with bacteria suspension in the ratio 1 to 2. S. epidermidis (ATCC 12228) is pre-incubated under aerobic conditions for 24 h at 35° C. on CASO agar (Merck 1.05458). A bacteria suspension having an optical density (OD) of about 1.0 is subsequently prepared in CASO broth (Merck 1.05459, double-concentrated) and diluted again 1:10 in CASO broth. 150 μl of freshly prepared sample are added to 150 μl of bacteria suspension per well. The optical density is determined over the course of time at 37° C. using a Bioscreen C™ analyser compared with the negative control (=vehicle without test substance). Compared with the negative control, reduced optical densities confirm growth-inhibiting substance actions
as §6

The subject of another experiment is Corynebacterium xerosis. Kind of experiment: Antimicrobial action, microbe count (Example 6). The class given is cell-based. The conditions noted are these: conc. 0.5%, H2O, count t0 1.0 × 10^6. The protocol:
as §1, §2, §3, §4, §5

The next experiment concerns Salmonella enterica. Kind of experiment: Antimicrobial action, microbe count (Example 6). The class given is cell-based. The conditions noted are these: conc. 0.8%, H2O (12% of ethanol), count t0 1.3 × 10^4. The procedure:
as §1, §2, §3, §4, §5

A further experiment deals with Propionibacterium acnes. Description: Antimicrobial action, microbe count (Example 6). The conditions noted are these: conc. 1.0%, H2O, count t0 7.8 × 10^5. The class given is cell-based. The protocol: as §1, §2, §3, §4, §5
In another experiment the test system is Malassezia furfur. Kind of experiment: Antimicrobial action, microbe count (Example 6). The class given is cell-based. The conditions noted are these: conc. 1.0%, H2O, count t0 4.0 × 10^2. The procedure: as §1, §2, §3, §4, §5
In another experiment the test system is Aspergillus brasiliensis. Description: Antimicrobial action, microbe count (Example 6). It is filed as cell-based. The conditions noted are these: conc. 1.0%, H2O (12% of ethanol), count t0 8.0 × 10^2. The procedure: as §1, §2, §3, §4, §5
Another experiment has as its system Staphylococcus aureus. Kind of experiment: Antimicrobial action, microbe count (Example 6). The class given is cell-based. The conditions noted are these: conc. 0.5%, H2O (12% of ethanol), count t0 1.1 × 10^4. The protocol:
as §1, §2, §3, §4, §5

In the next experiment the test system is Candida albicans. Kind of experiment: Antimicrobial action, microbe count (Example 6). The conditions noted are these: for Δlog: t24 h. It is filed as cell-based. The protocol:
as §2, §3, §4, §5

Setting [4] is: conc. 0.5%, H2O, count t0 3.8 × 10^5.
Setting [5] is: conc. 1.0%, H2O (12% of ethanol), count t0 6.0 × 10^3.

Turning to `CC(C)(C)C1CCC(O)CC1` (stereo not shown) [4-t-butyl-1-cyclohexanol, reference compound], the “Antioxidation-protection factor (ratio of the induction times with and without test substance)” value in experiment [1] was determined as 1.05.

As for `COC(=O)c1ccc(O)cc1` [Methylparaben, methylparaben, reference compound], in the experiment on Echerichia coli (conc. 0.2%), the “Microbe count t24 h” value was 4.8 × 10^3 and the Δlog is −1.12.

Turning to `CC1CC(OC(=O)C2CCCCC2O)CC(C)(C)C1` (stereo not shown) [Substance I-10, 2-hydroxycyclohexanecarboxylic acid 3,3,5-trimethylcyclohexyl ester], the “OD20h, optical density of the bacteria suspension after 20 hours” value (shortened to “OD20h, optical density”) in the experiment on P. acnes (ATCC 6919) was determined as 0.45. The “Antioxidation-protection factor (ratio of the induction times with and without test substance)” value in experiment [1] worked out at 1.14. Further, in [2], the Final microbe count is given as 2.0 × 10^3 CFU/ml and the “Note: bacteriostatic or bactericidal action” value is “bacteriostatic”. In addition, the “OD20h, optical density” value in [3] (1st experiment, negative control 0.80) is given as 0.30.

Consider `CCCCOC(=O)C1CCC(O)CC1` (stereo not shown) [Substance I-20, 4-hydroxycyclohexanecarboxylic acid butyl ester], for which the “OD20h, optical density” value is given as 0.70 in the experiment with P. acnes (ATCC 6919) and 0.20 in [3] (2nd experiment, negative control 0.65). In addition, the “Microbe count t24 h” value in the experiment with Echerichia coli (conc. 0.8%) is given as 0; in the experiment on Corynebacterium xerosis, 0; in the experiment with Salmonella enterica, 0; with Propionibacterium acnes it was 1.3 × 10^4; in the experiment with Malassezia furfur it was 0; with Aspergillus brasiliensis (count carried out after 48 h) it was 2.0 × 10^2. Also, the “Microbe count t24 h” value in the experiment with Staphylococcus aureus, in the experiment with Candida albicans (setting [4]) and in the experiment on Candida albicans (setting [5]) was 0 throughout. The Δlog in the experiment on Echerichia coli (conc. 0.8%) is reported as −4.80; with Corynebacterium xerosis (t24 h), −6.00; with Salmonella enterica (t24 h), −4.11; in the experiment on Propionibacterium acnes (t24 h), −1.78; with Malassezia furfur (t24 h), −2.60; in the experiment on Aspergillus brasiliensis (count after 48 h), −0.60. The values for the Δlog in the experiment with Staphylococcus aureus (t24 h), in the experiment on Candida albicans (setting [4]) and in the experiment with Candida albicans (setting [5]) were −4.04, −5.58 and −3.78, respectively. For the same compound, in [2], the Final microbe count worked out at 0 CFU/ml. Also, the “Note: bacteriostatic or bactericidal action” value in experiment [2] is “bactericidal”.

With tocopherol [reference compound], the “Antioxidation-protection factor (ratio of the induction times with and without test substance)” value in experiment [1] was 1.00.
